In BindingDB's records for patent US11225492 (Hangzhou Innogate Pharma Co., Ltd., 2022):

Each compound was assayed against Cyclin-dependent kinase 6 (Homo sapiens, UniProt Q00534) (assay: Kinase Assay).
Method: CDK2/CycA2 and CDK6/cycD3 were assayed under buffer conditions in the presence of 50 mM HEPES (pH 7.5), 10 mM MgCl2, 0.0015% Brij-35, and 2 mM dithiothreitol, CDK4/CycD3 with buffer condition of 20 mM HEPES (pH 7.5), 10 mM MgCl2, 0.01% Triton X-100, and 2 mM dithiothreitol. Prepare compounds to 50× of the final desired highest inhibitor concentration by 100% DMSO and serial dilution in 3-fold for total of 10 concentrations. […] After assay for 60 min, 180 min, 60 min respectively at 28° C., reactions were terminated with stop solution (50 mM EDTA, 0.015% Brij-35, 0.2% Coating Reagent #3 and 100 mM HEPES (pH 7.5)). Collect conversion on Caliper EZ Reader.

Chain of Cyclin-dependent kinase 6 (Q00534 whole entry): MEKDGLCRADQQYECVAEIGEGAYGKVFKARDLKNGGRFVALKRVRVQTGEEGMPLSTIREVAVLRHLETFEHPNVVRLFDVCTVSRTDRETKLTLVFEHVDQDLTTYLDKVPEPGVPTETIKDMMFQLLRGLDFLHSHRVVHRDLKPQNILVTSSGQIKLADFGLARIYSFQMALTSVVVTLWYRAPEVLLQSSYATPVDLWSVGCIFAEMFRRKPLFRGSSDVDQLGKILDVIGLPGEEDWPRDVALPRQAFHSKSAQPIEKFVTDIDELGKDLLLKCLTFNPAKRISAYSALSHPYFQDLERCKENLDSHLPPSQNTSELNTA

| IC50 [nM] | SMILES |
| --- | --- |
| < 25 | CC(=O)c1c(C)c2cnc(Nc3ccc4c(c3)OC[C@@H]3CNCCN43)nc2n(C2CCCC2)c1=O [US11225492, Compound 7S] |
| < 25 | CC(=O)c1c(C)c2cnc(Nc3ccc4c(c3)OC[C@H]3CNCCN43)nc2n(C2CCCC2)c1=O [US11225492, Compound 7R] |
| < 25 | CC(=O)c1c(C)c2cnc(Nc3ccc4c(c3)OCC3CNCCN43)nc2n(C2CCCC2)c1=O (racemic) [US11225492, Compound 7] |
